Results as given in paper PMC4418665, “Cyclization of the Urokinase Receptor-Derived Ser-Arg-Ser-Arg-Tyr Peptide Generates a Potent Inhibitor of Trans-Endothelial Migration of Monocytes” (PLoS ONE, 2015).
Peptide text beside a SMILES is read from it.

System: GFP-tagged THP-1 cells on endothelial monolayer (HUVECs)
Assay: Monocyte diapedesis: GFP-tagged THP-1 cells on HUVEC monolayer
Assay type: cell-based, human
Conditions: 10 nM peptide, 30 minutes, 37°C, 10 fields/slide
Excerpt: Diapedesis of leukocytes plays a key role in the pathogenesis of inflammatory diseases and migration of monocytes from the blood into the sub-endothelial space is one of the earliest events. We investigated the effects of [SRSRY] on the number and morphology of THP-1 seeded to an endothelial monolayer. […] (Fig 5A). To examine the changes in morphology in more detail and quantify monocytes interacting with endothelial monolayer, we performed a subset of experiments using GFP-tagged THP-1, labeling co-cultures for F-actin and recording images by a confocal microscope. […] To further ascertain if [SRSRY] reduces trans-endothelial migration of monocytes, the ability of THP-1 cells to cross an endothelial monolayer was analyzed using the xCELLigence RTCA technology as previously described. […] At this time, reduction of impedance values, due to invading cells that interrupt monolayers was monitored in real-time for 10 hours. […]
Fig 5 [SRSRY] prevents trans-endothelial migration of THP-1 cells. […] Representative images of co-cultures analyzed by phase contrast microscopy at 100x with Scale bar: 50 μm (A) or stained with rhodamine- phalloidin and recorded by a confocal microscope (z-series with 0.25 μm intervals) at 630x with Scale bar: 10 μm (B). […] Fluorescent THP-1 cells which were adherent on the endothelial monolayer were counted on 10 fields/slide at 200x magnification. […]

N=C(N)NCCC[C@@H]1NC(=O)[C@H](CO)NC(=O)[C@H](Cc2ccc(O)cc2)NC(=O)[C@H](CCCNC(=N)N)NC(=O)[C@H](CO)NC1=O [[SRSRY], [Ser-Arg-Ser-Arg-Tyr]] (cyclo(RSRYS))
reduction of GFP-THP-1 cell number interacting with endothelial monolayer: 40%
